Like-named read-outs stand apart in the source and are kept apart here.
Legend:
Assay in all cases: biochemical
Tlp3^LBD K149A = Tlp3^LBD K149A (Campylobacter jejuni, UniProt Q0P864, K149A)
Tlp3^LBD D170A = Tlp3^LBD D170A (Campylobacter jejuni, UniProt Q0P864)
Tlp3 = Tlp3 (Campylobacter jejuni, UniProt Q0P864); assay type: binding
Experimental: His-tagged proteins (Tlp2, -3, and -4) were prepared as previously described ([11]) DNA segments encoding the periplasmic sensory domains (33 to 286 amino acids) of Tlp2 and (38 to 297 amino acids) of Tlp4 were amplified (see Table S7), ligated into pGEM-T Easy (Promega) and subcloned into pET-19b (Novagen) (see Table S6). Recombinant proteins were expressed in E. coli BL21(DE3) using 1 mM IPTG (isopropyl-β-D-thiogalactopyranoside) and purified using His-select-nickel chromatography as described previously ([8], [11]). […] Protein concentrations were determined using a NanoDrop spectrophotometer (Thermo Fisher).
(§1) Surface plasmon resonance (SPR) experiments were performed as described previously ([10], [11]) with the following modifications. […] All ligands were prepared in PBS (pH 7.2) and serially diluted from 0.2 to 0.0125 mM. A 10-min dissociation period was allocated after the introduction of each analyte. SPR experiments were performed in single-cycle kinetics mode using the BIAcore S200 biosensor system (Cytiva) at 25°C in PBS (pH 7.2) at a flow rate of 30 μL/min. The equilibrium dissociation constant (KD) for each analyte was determined using BIAcore S200 Evaluation software with a report point 4 s after the injection stop to account for the bulk transfer of the small molecule against a large amount of immobilized protein (as shown in Fig. S5).

Tlp2 = Tlp2 (Campylobacter jejuni, UniProt Q0PBZ3); assay type: binding
Tlp2, sequence (Q0PBZ3 entry or part of it): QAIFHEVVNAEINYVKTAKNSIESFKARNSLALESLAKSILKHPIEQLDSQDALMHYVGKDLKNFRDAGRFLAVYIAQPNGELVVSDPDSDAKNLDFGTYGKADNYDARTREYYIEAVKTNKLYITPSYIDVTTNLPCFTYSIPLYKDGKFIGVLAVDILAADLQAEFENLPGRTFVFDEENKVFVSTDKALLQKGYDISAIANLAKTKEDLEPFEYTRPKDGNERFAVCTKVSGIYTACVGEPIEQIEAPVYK
Experimental: (§2) His-tagged proteins (Tlp2, -3, and -4) were prepared as previously described ([11]) DNA segments encoding the periplasmic sensory domains (33 to 286 amino acids) of Tlp2 and (38 to 297 amino acids) of Tlp4 were amplified (see Table S7), ligated into pGEM-T Easy (Promega) and subcloned into pET-19b (Novagen) (see Table S6). Recombinant proteins were expressed in E. coli BL21(DE3) using 1 mM IPTG (isopropyl-β-D-thiogalactopyranoside) and purified using His-select-nickel chromatography as described previously ([8], [11]). The purity of the proteins was confirmed by SDS-PAGE and Western blot analysis with anti-His antibodies (Bio-Rad). Protein concentrations were determined using a NanoDrop spectrophotometer (Thermo Fisher).
as §1, with “modifications. Briefly, purified proteins were diluted to 0.15 μM in sodium acetate (pH 4.0) and immobilized onto an active flow cell of a CM5 sensor chip with a flow rate of 5 μL/min for 7 min of contact time using a standard amine coupling protocol. Immobilized protein levels for all three proteins ranged from 6028.3 to 9779.3 response units (RU) providing a minimum expected response maximum (RMax) between 20 and 50 RU for the small molecules tested.” for “modifications.”

Tlp4 = Tlp4 (Campylobacter jejuni, UniProt Q0PBP3); assay type: binding
Tlp4, sequence (Q0PBP3 entry or part of it): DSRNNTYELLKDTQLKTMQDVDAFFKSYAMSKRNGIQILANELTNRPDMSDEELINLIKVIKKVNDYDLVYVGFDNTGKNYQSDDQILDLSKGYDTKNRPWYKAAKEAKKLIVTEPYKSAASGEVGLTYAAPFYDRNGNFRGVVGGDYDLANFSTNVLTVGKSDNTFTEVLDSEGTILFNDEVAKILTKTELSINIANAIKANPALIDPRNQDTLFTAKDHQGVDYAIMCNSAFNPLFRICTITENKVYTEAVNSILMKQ
Experimental: as §2
as §1, with “modifications. Briefly, purified proteins were diluted to 0.15 μM in sodium acetate (pH 4.0) and immobilized onto an active flow cell of a CM5 sensor chip with a flow rate of 5 μL/min for 7 min of contact time using a standard amine coupling protocol. Immobilized protein levels for all three proteins ranged from 6028.3 to 9779.3 response units (RU) providing a minimum expected response maximum (RMax) between 20 and 50 RU for the small molecules tested.” for “modifications.”

Tlp3^LBD W151A = Tlp3^LBD W151A (Campylobacter jejuni, UniProt Q0P864, W151A)
Tlp3^LBD W151A, sequence (Q0P864 41-290 W151A): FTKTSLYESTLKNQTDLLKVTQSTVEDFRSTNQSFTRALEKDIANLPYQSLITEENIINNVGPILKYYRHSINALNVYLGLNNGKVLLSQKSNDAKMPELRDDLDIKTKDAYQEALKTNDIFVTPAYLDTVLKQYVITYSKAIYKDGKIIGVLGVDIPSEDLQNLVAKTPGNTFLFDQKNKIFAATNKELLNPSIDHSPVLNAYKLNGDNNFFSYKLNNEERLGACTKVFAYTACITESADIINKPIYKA

[1] = SPR KD, mean ± SD, NB = no binding, read-out: Tlp2 Affinity
[2] = SPR KD, mean ± SD, NB = no binding, read-out: Tlp4 Affinity

Tlp3, sequence (Q0P864 entry or part of it): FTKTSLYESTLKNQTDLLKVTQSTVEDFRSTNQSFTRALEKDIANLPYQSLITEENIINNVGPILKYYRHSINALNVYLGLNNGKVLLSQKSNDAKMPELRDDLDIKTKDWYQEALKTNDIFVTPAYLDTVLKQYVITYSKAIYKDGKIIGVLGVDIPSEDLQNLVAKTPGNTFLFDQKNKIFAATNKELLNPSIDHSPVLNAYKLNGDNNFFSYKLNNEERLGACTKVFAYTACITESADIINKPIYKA
Tlp3^LBD K149A, sequence (Q0P864 41-290 K149A): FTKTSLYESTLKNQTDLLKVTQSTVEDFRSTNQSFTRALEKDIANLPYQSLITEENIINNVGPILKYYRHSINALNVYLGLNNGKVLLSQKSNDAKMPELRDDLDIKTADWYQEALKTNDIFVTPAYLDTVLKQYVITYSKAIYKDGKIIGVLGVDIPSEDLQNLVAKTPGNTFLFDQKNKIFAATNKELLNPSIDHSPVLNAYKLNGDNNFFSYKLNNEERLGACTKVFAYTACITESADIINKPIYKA
Tlp3^LBD D170A, sequence (Q0P864 41-290 T170A): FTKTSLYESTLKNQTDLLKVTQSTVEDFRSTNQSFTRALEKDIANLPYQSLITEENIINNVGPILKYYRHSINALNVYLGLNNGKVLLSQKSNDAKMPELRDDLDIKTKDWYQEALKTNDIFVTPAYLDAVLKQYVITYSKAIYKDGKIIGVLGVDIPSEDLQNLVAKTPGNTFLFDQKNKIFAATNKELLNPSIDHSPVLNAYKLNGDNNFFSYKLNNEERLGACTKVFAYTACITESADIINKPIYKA

| Structure (SMILES) | Kd (Tlp3^LBD K149A) [µM] | Kd (Tlp3^LBD D170A) [µM] | Kd (Tlp3) [µM] | Kd (Tlp2; [1]) [µM] | Kd (Tlp4; [2]) [µM] | Kd (Tlp3^LBD W151A) [µM] | Kd (Tlp2) [µM] | Kd (Tlp4) [µM] |
| --- | --- | --- | --- | --- | --- | --- | --- | --- |
| C[C@H](O)[C@@H](O)[C@@H](O)[C@H](O)C=O [Fucose] | 63.7 ± 16.8 | 46.6 ± 16.1 | 25.2 ± 6.5 | 15.5 ± 0.9 | 16.2 ± 2.2 | 66.9 ± 14.6 |  |  |
| NCCCC[C@H](N)C(=O)O [Lysine] | 32.3 ± 5.3 | 14.5 ± 4.8 | 4.3 ± 1.6 |  |  | 27.3 ± 5.9 | 18.6 ± 1.5 | 19.7 ± 3.9 |
| CC(=O)N[C@H]1[C@H]([C@H](O)[C@H](O)CO)OC(O)(C(=O)O)C[C@@H]1O (stereo partly drawn) [Sialic acid] | 24 ± 6.6 | 16.6 ± 2 | 9 ± 0.2 | 1.7 ± 0.2 | 0.8 ± 0.1 | 17.3 ± 4.4 |  |  |

Source: publication PMC9769880, “Diverse Sensory Repertoire of Paralogous Chemoreceptors Tlp2, Tlp3, and Tlp4 in Campylobacter jejuni” (Microbiology Spectrum, 2022)
